From ChEMBL document CHEMBL1201862, “PubChem BioAssay data set” (2004)
Calls of active or inactive are those of the source.

Legend:
[1] = Luminescence Cell-Based Dose Response HTS to Identify Activators of Luciferase Translation or Activity in H4 […] Cells. [Related pubchem assays: 1829 (Project Summary), 1814 (Primary HTS)]; assay type: functional
H4 = test: Luminescence Cell-Based Dose Response HTS to Identify Activators of 5'UTR Stem-Loop Driven Prion Protein mRNA Translation in H4 Neuroglioblastoma Cells. [Related pubchem assays: 1829 (Project Summary), 1814 (Primary HTS)]; assay type: functional; settings: Homo sapiens
[2] = cytotoxicity in HPDE-C7 cells, cell-based, fluorescence, HTS (AID 430); assay type: functional; settings: Homo sapiens
[3] = cytotoxicity in KRAS-transformed pancreatic duct cells, primary screen, cell-based, fluorescence, HTS (AID 431); assay type: functional; settings: Homo sapiens;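 further: cell line used: HPDE-C7K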
[4] = biological target: T1, Microphthalmia-associated transcription factor (Homo sapiens, UniProt O75030); test: TRPM1 promoter luciferase signal decrease, dose response, MITF inhibitor project, cell-based, SK-MEL-5, cherry-picked, set 3 (AID 493073); assay type: functional
T1 sequence (O75030 whole entry): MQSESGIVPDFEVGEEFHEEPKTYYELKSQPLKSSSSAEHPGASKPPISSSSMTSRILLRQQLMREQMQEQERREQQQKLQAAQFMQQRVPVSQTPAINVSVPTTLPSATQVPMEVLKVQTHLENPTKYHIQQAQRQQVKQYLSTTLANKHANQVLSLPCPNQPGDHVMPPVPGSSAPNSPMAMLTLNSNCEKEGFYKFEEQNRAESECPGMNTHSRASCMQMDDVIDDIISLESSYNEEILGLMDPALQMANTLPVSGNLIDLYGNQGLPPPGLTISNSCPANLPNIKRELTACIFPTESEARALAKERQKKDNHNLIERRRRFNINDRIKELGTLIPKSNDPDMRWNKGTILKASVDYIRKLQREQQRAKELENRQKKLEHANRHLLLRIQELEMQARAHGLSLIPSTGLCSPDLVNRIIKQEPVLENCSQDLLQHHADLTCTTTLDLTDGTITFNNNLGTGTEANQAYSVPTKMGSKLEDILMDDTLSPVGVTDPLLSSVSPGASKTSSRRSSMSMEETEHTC

[5] = biological target: T2, Replicative DNA helicase DnaB (Mycobacterium tuberculosis, UniProt P9WMR3); test: DnaB intein splicing inhibitors, dose response, biochemical, cell-free fluorescence (AID 449749); assay type: functional
T2 sequence (P9WMR3 whole entry): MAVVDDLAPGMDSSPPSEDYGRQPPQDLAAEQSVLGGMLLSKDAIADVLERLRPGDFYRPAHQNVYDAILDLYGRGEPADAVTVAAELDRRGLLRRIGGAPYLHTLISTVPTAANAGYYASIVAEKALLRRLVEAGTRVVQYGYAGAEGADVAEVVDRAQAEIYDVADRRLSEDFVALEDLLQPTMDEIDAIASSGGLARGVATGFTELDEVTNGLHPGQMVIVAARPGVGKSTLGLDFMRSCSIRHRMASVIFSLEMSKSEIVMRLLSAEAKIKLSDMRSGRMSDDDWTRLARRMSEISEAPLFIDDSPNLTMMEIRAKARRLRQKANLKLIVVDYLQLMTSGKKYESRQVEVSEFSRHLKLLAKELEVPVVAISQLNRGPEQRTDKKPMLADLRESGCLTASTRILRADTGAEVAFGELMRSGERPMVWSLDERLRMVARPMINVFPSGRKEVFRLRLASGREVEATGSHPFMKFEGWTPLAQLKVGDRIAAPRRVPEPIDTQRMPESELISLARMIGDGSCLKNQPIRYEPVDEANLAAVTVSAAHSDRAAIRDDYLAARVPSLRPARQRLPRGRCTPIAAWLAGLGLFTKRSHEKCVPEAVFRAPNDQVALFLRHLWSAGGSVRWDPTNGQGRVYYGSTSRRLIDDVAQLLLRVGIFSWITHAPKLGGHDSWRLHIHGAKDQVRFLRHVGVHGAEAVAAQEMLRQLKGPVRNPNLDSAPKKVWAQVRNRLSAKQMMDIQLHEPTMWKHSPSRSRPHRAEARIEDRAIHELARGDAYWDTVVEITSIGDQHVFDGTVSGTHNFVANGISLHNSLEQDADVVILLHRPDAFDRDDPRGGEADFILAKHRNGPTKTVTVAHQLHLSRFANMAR

Protein RecA = biological target: T3, Protein RecA (Mycobacterium tuberculosis, UniProt P9WHJ3); test: Fluorescence Cell-Free Homogeneous Dose Retest to Identify Inhibitors of RecA-Intein Splicing Activity. [Related pubchem assays (depositor defined):AID2097, AID2223, AID489010, AID492950]; assay type: functional
T3 sequence (P9WHJ3 whole entry): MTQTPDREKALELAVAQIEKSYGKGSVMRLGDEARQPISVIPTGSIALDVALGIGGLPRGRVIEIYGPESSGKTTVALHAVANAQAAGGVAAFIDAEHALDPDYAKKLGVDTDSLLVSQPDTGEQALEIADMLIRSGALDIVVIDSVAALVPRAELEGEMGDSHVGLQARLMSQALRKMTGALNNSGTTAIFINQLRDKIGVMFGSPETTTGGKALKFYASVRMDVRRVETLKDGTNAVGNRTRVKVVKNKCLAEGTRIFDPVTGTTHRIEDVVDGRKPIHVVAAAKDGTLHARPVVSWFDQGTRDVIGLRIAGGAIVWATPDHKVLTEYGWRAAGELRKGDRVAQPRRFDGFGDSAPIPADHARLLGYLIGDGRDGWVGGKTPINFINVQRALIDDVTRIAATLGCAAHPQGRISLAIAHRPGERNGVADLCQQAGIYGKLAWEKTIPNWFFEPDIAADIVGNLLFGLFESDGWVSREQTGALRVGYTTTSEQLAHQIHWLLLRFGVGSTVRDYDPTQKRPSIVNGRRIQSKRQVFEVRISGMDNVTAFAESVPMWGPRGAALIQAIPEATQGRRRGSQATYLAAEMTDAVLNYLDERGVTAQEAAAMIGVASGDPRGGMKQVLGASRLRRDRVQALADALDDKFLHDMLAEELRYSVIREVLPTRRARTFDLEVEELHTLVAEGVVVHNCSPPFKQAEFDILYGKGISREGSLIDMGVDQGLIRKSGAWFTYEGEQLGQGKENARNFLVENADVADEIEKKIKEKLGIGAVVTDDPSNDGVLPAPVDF

A-375 [6] = test: MITF: Counter assay: A375 proliferation Measured in Cell-Based System Using Plate Reader - 2084-03_Inhibitor_Dose_DryPowder_Activity. [Related pubchem assays (depositor defined):AID488944]; assay type: functional; settings: Homo sapiens
A-375 [7] = test: A375 melanoma cell viability reduction, dose response, counter-screen for MITF modulator project, cherry-pick samples, set 2 (AID 540335); assay type: functional, cell-based; settings: Homo sapiens
Paired box protein Pax-8 = Paired box protein Pax-8 (Homo sapiens, UniProt Q06710); test: inhibitors of PAX8-driven TPO luciferase reporter, dose response, RMG-I cells, cherry-pick (AID 687027); assay type: functional, cell-based;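 further: luciferase reporter driven by Pax8 target thyroperoxidase promoter measured by SteadyGlo luminescence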
Sequence of Paired box protein Pax-8 (Q06710 whole entry): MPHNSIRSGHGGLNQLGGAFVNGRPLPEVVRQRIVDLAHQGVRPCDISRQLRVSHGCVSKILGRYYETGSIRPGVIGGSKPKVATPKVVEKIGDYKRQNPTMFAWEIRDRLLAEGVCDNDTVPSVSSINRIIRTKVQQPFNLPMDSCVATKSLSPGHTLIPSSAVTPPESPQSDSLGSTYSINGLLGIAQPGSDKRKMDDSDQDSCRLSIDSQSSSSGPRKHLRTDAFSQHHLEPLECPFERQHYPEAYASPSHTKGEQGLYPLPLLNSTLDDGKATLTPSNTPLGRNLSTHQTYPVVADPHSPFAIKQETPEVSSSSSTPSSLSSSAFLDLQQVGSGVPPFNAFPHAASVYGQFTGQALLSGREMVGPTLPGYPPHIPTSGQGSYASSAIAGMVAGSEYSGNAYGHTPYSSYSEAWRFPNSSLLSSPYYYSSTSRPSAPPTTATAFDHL

[8] = PAX2 cell-based inhibition, dose response, selectivity assay for PAX8 inhibitor project, plate reader, dry powder samples (AID 743048); assay type: functional;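 further: HEK293 cells carrying a WT1 promoter luciferase reporter driven by expressed Pax2; potency is for inhibition of Pax2 driven reporter signal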
[9] = cytotoxicity in COV362 ovarian cancer cells, dose response, cytotoxicity control for PAX8 inhibitor project, cell-based, plate reader, dry powder, SA12 (AID 743144); assay type: functional
[10] = IOSE-T80 ovarian epithelial cell cytotoxicity, dose response, cytotoxicity control for PAX8 inhibitor project, plate reader, dry powder samples (AID 743045); assay type: functional, cell-based
[11] = A2780 ovarian cancer cell cytotoxicity, dose response, cytotoxicity control, plate reader, dry powder samples (AID 743046); assay type: functional, cell-based
[12] = PAX5 activity inhibitors, dose response, selectivity assay for PAX8 inhibitor project, cell-based, plate reader, dry powder samples (AID 743047); assay type: functional;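 further: HEK293 cells carrying a Pax5 driven CD19 promoter luciferase reporter; potency of inhibitors that lower reporter luminescence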
[13] = IGROV1 ovarian cancer cell cytotoxicity, dose response, PAX8 inhibitor project, plate reader, dry powder samples (AID 743043); assay type: functional, cell-based; settings: IGROV-1
[14] = cytotoxicity in OVCAR4 cells, dose response, cytotoxicity control for PAX8 inhibitor project, cell-based, plate reader, dry powder, SA11 (AID 743150); assay type: functional; settings: OVCAR-4
[15] = cytotoxicity in COV434 cells, dose response, cytotoxicity control for PAX8 inhibitor project, cell-based, plate reader, dry powder, SA7 (AID 743145); assay type: functional
[16] = cytotoxicity in OV-90 ovarian cancer cells, dose response, PAX8 inhibitor project, cell-based, plate reader, dry powder, SA8 (AID 743149); assay type: functional
[17] = cytotoxicity dependent on PAX8, dose response, cell-based, plate reader, dry powder (AID 743049); assay type: functional
[18] = Luminescence Cell-Based Dose Retest to Confirm Inhibitors of Cancer Stem Cells. [Related pubchem assays (depositor defined):AID2717, AID2721]; assay type: functional; settings: Homo sapiens
[19] = cytotoxicity in HMLE control line with eGFP shRNA, dose response, counter-screen for HMLE_sh_ECad selective toxicity project, cell-based, HMLE_sh_eGFP, luminescence (AID 463074); assay type: functional, Homo sapiens;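 further: HMLE human mammary epithelial cells expressing control shRNA against eGFP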
HeLa = test: HeLa cell cytotoxicity, dose response, cytotoxicity control for MITF activator project, CellTiter-Glo luminescence, cherry-pick samples (AID 540259); assay type: functional, cell-based; settings: Homo sapiens
Hexokinase-1 = biological target: T4, Hexokinase-1 (Homo sapiens, UniProt P19367); test: HK1 enzyme inhibition by HKDC1 hits, SAR follow-up, selectivity assay for HKDC1 inhibitor project, biochemical, set 2, resazurin fluorescence coupled readout (AID 588356); assay type: functional
T4 sequence (P19367 whole entry): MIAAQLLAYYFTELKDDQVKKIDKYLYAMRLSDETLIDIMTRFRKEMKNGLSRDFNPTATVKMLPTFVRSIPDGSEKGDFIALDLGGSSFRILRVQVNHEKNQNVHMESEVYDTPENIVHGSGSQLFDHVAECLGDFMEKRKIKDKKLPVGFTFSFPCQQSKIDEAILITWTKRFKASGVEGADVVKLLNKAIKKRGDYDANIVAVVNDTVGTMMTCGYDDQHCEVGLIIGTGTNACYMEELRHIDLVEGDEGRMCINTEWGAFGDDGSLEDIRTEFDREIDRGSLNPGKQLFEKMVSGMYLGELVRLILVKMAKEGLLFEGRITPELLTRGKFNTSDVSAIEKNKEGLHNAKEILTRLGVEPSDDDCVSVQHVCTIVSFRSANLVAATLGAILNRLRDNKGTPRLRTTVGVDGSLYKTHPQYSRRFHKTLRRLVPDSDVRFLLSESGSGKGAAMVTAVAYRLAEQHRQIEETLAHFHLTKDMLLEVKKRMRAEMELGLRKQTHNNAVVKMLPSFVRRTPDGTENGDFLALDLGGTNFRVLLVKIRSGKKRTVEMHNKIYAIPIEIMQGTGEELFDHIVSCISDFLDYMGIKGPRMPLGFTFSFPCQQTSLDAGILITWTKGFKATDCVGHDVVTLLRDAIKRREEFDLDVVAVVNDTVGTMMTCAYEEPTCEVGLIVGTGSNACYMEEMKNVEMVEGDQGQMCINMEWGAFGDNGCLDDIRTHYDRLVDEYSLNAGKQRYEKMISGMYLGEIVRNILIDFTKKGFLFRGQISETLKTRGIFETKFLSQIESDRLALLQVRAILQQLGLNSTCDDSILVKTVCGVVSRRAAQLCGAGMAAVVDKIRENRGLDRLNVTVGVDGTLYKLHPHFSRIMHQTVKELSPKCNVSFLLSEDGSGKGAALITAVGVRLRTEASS

Hexokinase HKDC1 = biological target: T5, Hexokinase HKDC1 (Homo sapiens, UniProt Q2TB90); test: HKDC1 hexokinase inhibitors, SAR follow-up, biochemical, set 2 (AID 588355); assay type: functional
T5 sequence (Q2TB90 whole entry): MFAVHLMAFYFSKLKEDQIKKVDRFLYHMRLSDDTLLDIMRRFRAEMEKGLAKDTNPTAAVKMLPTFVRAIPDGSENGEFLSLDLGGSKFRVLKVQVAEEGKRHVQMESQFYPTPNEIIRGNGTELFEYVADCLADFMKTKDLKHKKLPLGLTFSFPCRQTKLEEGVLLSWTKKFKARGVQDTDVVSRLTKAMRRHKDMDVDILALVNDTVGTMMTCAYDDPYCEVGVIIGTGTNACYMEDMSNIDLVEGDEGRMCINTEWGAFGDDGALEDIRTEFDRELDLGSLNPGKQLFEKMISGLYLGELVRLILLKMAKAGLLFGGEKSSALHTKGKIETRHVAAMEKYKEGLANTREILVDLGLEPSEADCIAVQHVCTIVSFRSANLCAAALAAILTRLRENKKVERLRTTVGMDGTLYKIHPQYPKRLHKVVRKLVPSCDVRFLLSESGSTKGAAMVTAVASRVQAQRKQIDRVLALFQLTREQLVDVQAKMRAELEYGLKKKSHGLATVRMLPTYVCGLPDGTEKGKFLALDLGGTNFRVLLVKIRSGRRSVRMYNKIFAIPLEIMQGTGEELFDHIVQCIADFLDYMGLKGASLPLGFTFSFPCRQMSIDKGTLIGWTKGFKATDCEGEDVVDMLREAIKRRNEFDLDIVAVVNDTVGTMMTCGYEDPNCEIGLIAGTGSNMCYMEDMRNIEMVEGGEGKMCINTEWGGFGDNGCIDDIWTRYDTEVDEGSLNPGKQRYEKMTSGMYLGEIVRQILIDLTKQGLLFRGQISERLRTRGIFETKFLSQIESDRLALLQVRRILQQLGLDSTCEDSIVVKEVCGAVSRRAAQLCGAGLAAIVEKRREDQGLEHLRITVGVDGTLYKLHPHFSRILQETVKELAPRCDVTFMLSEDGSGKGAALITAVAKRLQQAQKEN

Compound: Cn1nnnc1Sc1ncnc2scc(-c3ccc(F)cc3)c12
- EC50 [1]: 116 nM (active)
- EC50 (H4): > 120 µM (not active)
- EC50 [2]: 5.23 µM (active)
- EC50 [3]: 5.32 µM (active)
- AC50 [4]: 8.1 µM (active)
- AC50 [5]: 93 µM (active)
- EC50 (Protein RecA): 11.2 µM (active)
- AC50 (A-375 [6]): > 35 µM (active)
- AC50 (A-375 [7]): > 35 µM (active)
- AC50 (Paired box protein Pax-8): 4.15 µM (active)
- AC50 [8]: 28.6 µM (active)
- AC50 [9]: 48 µM (active)
- AC50 [10]: 68.6 µM (active)
- AC50 [11]: 29.8 µM (active)
- AC50 [12]: 36.4 µM (active)
- AC50 [13]: 35.6 µM (active)
- AC50 [14]: 39.7 µM (active)
- AC50 [15]: 37.1 µM (active)
- AC50 [16]: 44.6 µM (active)
- AC50 [17]: 26.6 µM (active)

Compound: O=C(NC(=S)Nc1ccc2oc(=O)ccc2c1)c1ccc(-c2cccc(Cl)c2Cl)o1
- AC50 [18]: 2.77 µM (active)
- AC50 [19]: 39.2 µM (active)

Compound: Nc1nc(-c2cc(-c3ccccc3)no2)cs1
- AC50 (HeLa): 144 µM (active)

Compound: COc1cc2c(cc1OC)-c1cc(NCc3ccccc3F)nc(=O)n1CC2
- IC50 (Hexokinase-1): > 80 µM (inactive)
- IC50 (Hexokinase HKDC1): > 80 µM (inactive)
